Consider three molecules from patent US20260297542A1, “HERBICIDE RESISTANT PLANTS” (SYNGENTA CROP PROTECTION AG, priority 2023, published 2026).

SMILES strings stand for the structures. Positions count from the first letter of the chain named.

Experiment in all cases: E. coli hemG growth inhibition by herbicide, AtPPO1 variant
Common to all, as to type: cell-based
Conditions in all cases: read-out: percentage growth inhibition

For experiment [1], the target named is T1, AtPPO1 G481N (Arabidopsis thaliana, UniProt P55826, G481N).
T1 construct: expressed in transfected cells; host or cells: E. coli BL21(DE3) hemG, pET24a plasmid
T1 sequence (P55826 35-537 G481N): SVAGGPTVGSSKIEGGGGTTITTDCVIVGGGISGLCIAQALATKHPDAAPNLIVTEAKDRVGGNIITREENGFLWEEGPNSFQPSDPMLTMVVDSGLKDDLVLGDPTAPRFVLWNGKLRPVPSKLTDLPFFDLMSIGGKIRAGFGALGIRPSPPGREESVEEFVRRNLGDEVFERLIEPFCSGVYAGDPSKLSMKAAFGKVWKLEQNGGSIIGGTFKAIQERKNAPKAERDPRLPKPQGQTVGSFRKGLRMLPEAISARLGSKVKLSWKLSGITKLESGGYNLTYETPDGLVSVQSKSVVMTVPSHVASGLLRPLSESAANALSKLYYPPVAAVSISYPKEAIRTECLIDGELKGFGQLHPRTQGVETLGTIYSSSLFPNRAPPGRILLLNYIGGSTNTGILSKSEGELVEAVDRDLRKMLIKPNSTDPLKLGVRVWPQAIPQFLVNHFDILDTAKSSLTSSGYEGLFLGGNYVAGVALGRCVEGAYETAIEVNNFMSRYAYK
An outline of the steps: (§1)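 AtPPO1 variants from a site-saturation library, codon-optimised and T7-driven in pET24a, were expressed in E. coli BL21(DE3) lacking hemG (hemG replaced by CmR). Growth in Terrific broth with 0.1 mM IPTG plus 6.25 ppm herbicide 0 or E, 0.78 ppm herbicide B, or DMSO was read as OD600 after 24 h at 37° C; inhibition was calculated against the DMSO culture.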

The target in experiment [2] is T2, AtPPO1 Y361C (Arabidopsis thaliana, UniProt P55826, Y361C).
T2 construct: expressed in transfected cells; host or cells: E. coli BL21(DE3) hemG, pET24a plasmid
T2 sequence (P55826 35-537 Y361C): T1 sequence (P55826 35-537 G481N) with Y327C, N447G
The method in brief: as §1

Experiment [3] has as its target T3, AtPPO1 T431R (Arabidopsis thaliana, UniProt P55826, T431R).
T3 construct: expressed in transfected cells; host or cells: E. coli BL21(DE3) hemG (pET24a, T7 promoter)
T3 sequence (P55826 35-537 T431R): T1 sequence (P55826 35-537 G481N) with T397R, N447G
The method in brief:
as §1

Experiment [4] deals with T4, AtPPO1 R449K (Arabidopsis thaliana, UniProt P55826, R449K).
T4 construct: expressed in transfected cells; host or cells: E. coli BL21(DE3) hemG, pET24a plasmid
T4 sequence (P55826 35-537 R449K): T1 sequence (P55826 35-537 G481N) with R415K, N447G
The method in brief:
as §1

As for `C#CCN1C(=O)C(F)(F)Oc2cc(F)c(-n3c(=O)n(C)c(=S)n(C)c3=O)cc21` [Herbicide B, trifludimoxazin], the inhibition (usually the change of the read-out against control, counted positive when it falls) at 0.78 ppm in experiment [1] came to 44%; in experiment [2], 36%; in experiment [3] it was 25%; in experiment [4], 35%.
`CCOC(=O)[C@]1(C)CC(c2cc(-n3c(=O)n(C)c(=S)n(C)c3=O)c(F)cc2Cl)=NO1` [Herbicide D, ethyl (5S)-3-[2-chloro-5-(3,5-dimethyl-2,6-dioxo-4-thioxo-1,3,5-triazinan-1-yl)-4-fluoro-phenyl]-5-methyl-4H-isoxazole-5-carboxylate]: the inhibition at 6.25 ppm worked out at 14% in experiment [1], 15% in experiment [2], 28% in experiment [3] and 37% in experiment [4].
For `CC(C)N(C)S(=O)(=O)NC(=O)c1cc(-n2c(=O)cc(C(F)(F)F)n(C)c2=O)c(F)cc1Cl` [Herbicide E, saflufenacil] the same measures were 4%, 35%, 56% and 68%.
